Experimental data from patent US20230310428A1, “EGFR INHIBITOR AND PREPARATION METHOD AND USE THEREOF” (HONGYUN BIOTECH CO., LTD., priority 2020, published 2023).
Where two headings read alike, the source gives them in different places.

How the values were obtained:
Assay in all cases: Growth inhibitory activity of compounds on BaF3 cell lines stably transfected with kinase (MTS, 48 h)
Type in all cases: cell-based
[1] = molecular target: T1, various mutants of kinase EGFR (BaF3 cell lines stably transfected with kinase) (Homo sapiens, UniProt P00533, L858R/T790M)
T1 construct: expressed in transfected cells; host or cells: BaF3
Summary of the method: (§1)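 Growth is measured by MTS reduction (OD 490 nm) after 48 h compound exposure at up to 10 µM in 8 steps of 1/3. Inhibition is calculated against a 0.1% DMSO control and cell-free blank, and IC50 is derived from it.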

[2] = molecular target: T2, various mutants of kinase EGFR (BaF3 cell lines stably transfected with kinase) (Homo sapiens, UniProt P00533, T790M/C797S, form not given)
T2 construct: other: BaF3 cells stably transfected with EGFR Δ19Del/T790M/C797S; MTS, 48; other: BaF3 cell line stably transfected with EGFR Δ19Del/T790M/C7
Summary of the method: as §1

[3] = molecular target: T3, various mutants of kinase EGFR (BaF3 cell lines stably transfected with kinase) (Homo sapiens, UniProt P00533, C797S/L858R/T790M)
T3 construct: expressed in transfected cells; host or cells: BaF3
Summary of the method: as §1

[4] = molecular target: T4, various mutants of kinase EGFR (BaF3 cell lines stably transfected with kinase) (Homo sapiens, UniProt P00533, L858R)
T4 construct: expressed in transfected cells; host or cells: BaF3
Summary of the method: as §1

[5] = molecular target: T5, various mutants of kinase EGFR (BaF3 cell lines stably transfected with kinase) (Homo sapiens, UniProt P00533, T790M, form not given)
T5 construct: other: BaF3 cells stably transfected with EGFR Δ19Del/T790M; MTS, 48 h; other: BaF3 cell line stably transfected with EGFR Δ19Del/T790M; MTS, 48
Summary of the method: as §1

[6] = molecular target: T6, various mutants of kinase EGFR (BaF3 cell lines stably transfected with kinase) (Homo sapiens, UniProt P00533)
T6 construct: other: BaF3 cells stably transfected with EGFR Δ19Del; MTS, 48 h; other: BaF3 cell line stably transfected with EGFR Δ19Del
Summary of the method: as §1

[7] = BaF3 cell line stably transfected with EGFR L858R/T790M, read-out: L858R/ T790M growth inhibitory activity IC50
[8] = BaF3 cell line stably transfected with EGFR Δ19Del/T790M/C797S, read-out: Δ19Del/T790M/ C797S growth inhibitory activity IC50
[9] = BaF3 cell line stably transfected with EGFR L858R/T790M/C797S, read-out: L858R/T790M/ C797S growth inhibitory activity IC50
[10] = BaF3 cell line stably transfected with EGFR L858R, read-out: L858R growth inhibitory activity IC50
[11] = BaF3 cell line stably transfected with EGFR Δ19Del/T790M, read-out: Δ19Del/ T790M growth inhibitory activity IC50
[12] = BaF3 cell line stably transfected with EGFR Δ19Del, read-out: Δ19Del growth inhibitory activity IC50
[13] = BaF3 cells stably transfected with EGFR L858R/T790M, read-out: IC50, growth inhibition, L858R/T790M
[14] = BaF3 cells stably transfected with EGFR Δ19Del/T790M/C797S, read-out: IC50, growth inhibition, Δ19Del/T790M/C797S
[15] = BaF3 cells stably transfected with EGFR L858R/T790M/C797S, read-out: IC50, growth inhibition, L858R/T790M/C797S
[16] = BaF3 cells stably transfected with EGFR L858R, read-out: IC50, growth inhibition, L858R
[17] = BaF3 cells stably transfected with EGFR Δ19Del/T790M, read-out: IC50, growth inhibition, Δ19Del/T790M
[18] = BaF3 cells stably transfected with EGFR Δ19Del, read-out: IC50, growth inhibition, Δ19Del

T2 sequence (P00533 with tags, fused parts or gaps DEL746-750/T790M/C797S, form open): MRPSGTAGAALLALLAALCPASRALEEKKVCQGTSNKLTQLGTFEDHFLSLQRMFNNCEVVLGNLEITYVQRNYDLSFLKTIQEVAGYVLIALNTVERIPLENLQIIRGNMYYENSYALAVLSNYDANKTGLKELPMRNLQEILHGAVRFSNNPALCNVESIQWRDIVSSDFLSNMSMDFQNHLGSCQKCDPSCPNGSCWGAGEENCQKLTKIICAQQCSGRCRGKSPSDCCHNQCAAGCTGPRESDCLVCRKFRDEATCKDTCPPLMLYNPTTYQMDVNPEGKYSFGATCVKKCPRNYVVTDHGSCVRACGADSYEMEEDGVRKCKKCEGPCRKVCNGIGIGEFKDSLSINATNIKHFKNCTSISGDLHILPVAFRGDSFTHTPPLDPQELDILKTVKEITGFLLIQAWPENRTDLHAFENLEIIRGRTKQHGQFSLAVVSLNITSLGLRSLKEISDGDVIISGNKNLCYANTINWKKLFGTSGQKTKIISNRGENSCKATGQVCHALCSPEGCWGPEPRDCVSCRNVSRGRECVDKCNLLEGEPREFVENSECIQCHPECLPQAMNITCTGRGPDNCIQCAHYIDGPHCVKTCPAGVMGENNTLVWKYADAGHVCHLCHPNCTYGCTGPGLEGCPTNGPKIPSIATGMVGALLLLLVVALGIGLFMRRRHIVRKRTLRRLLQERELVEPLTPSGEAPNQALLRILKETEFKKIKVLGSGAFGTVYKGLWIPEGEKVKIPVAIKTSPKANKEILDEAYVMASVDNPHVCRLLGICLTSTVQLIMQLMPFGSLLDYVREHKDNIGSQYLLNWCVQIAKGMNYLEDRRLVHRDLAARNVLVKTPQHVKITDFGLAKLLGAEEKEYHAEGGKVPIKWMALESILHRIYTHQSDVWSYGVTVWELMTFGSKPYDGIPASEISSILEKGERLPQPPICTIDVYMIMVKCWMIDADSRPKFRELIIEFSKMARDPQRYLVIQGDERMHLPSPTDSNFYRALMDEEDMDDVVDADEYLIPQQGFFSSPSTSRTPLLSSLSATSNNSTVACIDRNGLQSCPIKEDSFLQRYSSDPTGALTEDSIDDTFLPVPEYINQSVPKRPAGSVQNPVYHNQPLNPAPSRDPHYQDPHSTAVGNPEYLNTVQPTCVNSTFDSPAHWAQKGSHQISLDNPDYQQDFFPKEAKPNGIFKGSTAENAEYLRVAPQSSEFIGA
T1 sequence (P00533 25-1210 T790M/L858R): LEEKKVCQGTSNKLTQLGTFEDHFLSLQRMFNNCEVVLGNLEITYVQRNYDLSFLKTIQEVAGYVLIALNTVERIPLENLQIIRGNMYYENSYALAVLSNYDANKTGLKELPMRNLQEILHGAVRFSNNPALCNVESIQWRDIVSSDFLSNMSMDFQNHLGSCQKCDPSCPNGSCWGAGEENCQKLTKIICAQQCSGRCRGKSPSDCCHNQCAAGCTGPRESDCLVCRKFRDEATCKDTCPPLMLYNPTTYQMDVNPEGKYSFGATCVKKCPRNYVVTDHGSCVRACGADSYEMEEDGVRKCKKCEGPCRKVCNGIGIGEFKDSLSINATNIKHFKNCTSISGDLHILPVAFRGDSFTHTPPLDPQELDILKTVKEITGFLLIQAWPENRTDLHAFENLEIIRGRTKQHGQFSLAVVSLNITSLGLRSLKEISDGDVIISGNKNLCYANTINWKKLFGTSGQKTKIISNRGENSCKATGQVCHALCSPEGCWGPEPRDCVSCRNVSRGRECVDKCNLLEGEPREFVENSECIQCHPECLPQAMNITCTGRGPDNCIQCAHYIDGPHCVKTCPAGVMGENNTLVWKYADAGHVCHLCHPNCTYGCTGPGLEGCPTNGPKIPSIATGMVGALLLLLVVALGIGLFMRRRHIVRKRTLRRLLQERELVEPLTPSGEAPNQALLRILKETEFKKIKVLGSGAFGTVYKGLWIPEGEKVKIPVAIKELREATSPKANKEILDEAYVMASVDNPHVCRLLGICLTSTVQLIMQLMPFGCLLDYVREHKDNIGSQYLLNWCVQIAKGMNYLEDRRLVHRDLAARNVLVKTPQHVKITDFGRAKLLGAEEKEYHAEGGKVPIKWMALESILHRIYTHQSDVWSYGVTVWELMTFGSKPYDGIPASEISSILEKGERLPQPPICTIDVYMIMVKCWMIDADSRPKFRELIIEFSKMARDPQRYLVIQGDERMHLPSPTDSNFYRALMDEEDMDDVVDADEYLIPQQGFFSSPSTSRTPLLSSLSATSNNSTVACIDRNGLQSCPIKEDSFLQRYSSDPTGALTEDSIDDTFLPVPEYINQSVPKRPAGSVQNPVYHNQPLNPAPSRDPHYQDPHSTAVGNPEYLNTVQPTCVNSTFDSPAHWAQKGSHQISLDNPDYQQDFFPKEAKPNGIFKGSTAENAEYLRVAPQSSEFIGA
T3 sequence (P00533 25-1210 T790M/C797S/L858R): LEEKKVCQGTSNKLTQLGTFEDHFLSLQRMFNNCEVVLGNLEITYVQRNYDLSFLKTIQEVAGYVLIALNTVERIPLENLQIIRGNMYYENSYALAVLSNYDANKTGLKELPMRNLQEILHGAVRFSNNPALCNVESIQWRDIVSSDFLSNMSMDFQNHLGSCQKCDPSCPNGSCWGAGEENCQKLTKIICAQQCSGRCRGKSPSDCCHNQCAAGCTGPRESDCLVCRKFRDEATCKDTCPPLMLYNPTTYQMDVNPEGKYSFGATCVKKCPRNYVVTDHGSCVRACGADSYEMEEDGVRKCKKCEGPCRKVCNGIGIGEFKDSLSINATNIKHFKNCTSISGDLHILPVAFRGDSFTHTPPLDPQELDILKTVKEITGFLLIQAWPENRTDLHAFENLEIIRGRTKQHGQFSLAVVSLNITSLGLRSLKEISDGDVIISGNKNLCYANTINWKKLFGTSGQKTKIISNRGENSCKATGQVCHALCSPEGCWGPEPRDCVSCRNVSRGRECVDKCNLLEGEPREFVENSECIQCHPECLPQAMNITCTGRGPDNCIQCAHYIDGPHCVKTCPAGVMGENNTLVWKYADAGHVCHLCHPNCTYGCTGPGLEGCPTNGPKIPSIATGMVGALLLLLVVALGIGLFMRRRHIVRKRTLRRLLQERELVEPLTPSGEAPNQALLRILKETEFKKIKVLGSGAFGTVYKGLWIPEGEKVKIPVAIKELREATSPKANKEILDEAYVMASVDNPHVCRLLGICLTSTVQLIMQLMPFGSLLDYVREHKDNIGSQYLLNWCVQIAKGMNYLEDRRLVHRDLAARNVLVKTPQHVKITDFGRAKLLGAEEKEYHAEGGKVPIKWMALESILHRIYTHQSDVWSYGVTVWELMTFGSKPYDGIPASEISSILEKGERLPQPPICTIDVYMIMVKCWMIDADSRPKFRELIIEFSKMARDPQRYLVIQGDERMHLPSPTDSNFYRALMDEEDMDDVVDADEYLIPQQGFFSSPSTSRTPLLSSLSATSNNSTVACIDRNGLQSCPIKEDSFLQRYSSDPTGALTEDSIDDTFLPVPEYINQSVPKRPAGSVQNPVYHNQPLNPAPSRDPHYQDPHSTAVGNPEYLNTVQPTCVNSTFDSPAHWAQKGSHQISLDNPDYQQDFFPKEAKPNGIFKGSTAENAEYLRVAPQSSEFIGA
T6 sequence (P00533 with tags, fused parts or gaps DEL746-750): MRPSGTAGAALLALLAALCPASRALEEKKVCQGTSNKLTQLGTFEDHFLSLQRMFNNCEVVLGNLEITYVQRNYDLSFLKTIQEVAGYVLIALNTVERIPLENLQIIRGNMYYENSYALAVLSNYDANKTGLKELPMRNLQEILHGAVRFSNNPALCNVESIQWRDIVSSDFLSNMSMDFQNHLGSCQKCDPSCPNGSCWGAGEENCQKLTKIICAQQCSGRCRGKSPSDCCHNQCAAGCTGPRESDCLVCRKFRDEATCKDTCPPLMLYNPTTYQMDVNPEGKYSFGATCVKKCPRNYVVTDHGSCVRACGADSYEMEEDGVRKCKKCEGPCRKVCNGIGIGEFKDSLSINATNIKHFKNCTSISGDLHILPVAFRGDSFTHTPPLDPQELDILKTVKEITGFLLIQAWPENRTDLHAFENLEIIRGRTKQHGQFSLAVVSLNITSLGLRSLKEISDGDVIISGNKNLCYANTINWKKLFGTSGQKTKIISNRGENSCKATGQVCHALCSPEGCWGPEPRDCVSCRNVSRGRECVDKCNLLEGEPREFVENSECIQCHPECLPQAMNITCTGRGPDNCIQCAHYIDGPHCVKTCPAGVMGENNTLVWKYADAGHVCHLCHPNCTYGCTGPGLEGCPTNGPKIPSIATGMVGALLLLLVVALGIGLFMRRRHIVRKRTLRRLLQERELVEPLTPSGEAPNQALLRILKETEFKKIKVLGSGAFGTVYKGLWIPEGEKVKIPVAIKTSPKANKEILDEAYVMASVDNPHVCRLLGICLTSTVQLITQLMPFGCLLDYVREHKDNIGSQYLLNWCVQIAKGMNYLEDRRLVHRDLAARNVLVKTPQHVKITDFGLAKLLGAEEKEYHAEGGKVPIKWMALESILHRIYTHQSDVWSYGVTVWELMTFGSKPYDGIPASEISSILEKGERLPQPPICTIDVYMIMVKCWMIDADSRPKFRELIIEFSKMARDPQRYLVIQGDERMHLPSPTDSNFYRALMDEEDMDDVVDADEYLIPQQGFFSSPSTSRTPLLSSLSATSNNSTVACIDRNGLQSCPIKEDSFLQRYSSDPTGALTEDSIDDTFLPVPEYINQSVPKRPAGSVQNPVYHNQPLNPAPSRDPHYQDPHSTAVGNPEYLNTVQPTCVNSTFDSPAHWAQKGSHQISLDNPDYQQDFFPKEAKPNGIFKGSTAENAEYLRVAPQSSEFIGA

| Structure (SMILES) | IC50 [1, 7] [nM] | IC50 [2, 8] [nM] | IC50 [3, 9] [nM] | IC50 [4, 10] [nM] | IC50 [5, 11] [nM] | IC50 [6, 12] [nM] | IC50 [1, 13] [nM] | IC50 [2, 14] [nM] | IC50 [3, 15] [nM] | IC50 [4, 16] [nM] | IC50 [5, 17] [nM] | IC50 [6, 18] [nM] |
| --- | --- | --- | --- | --- | --- | --- | --- | --- | --- | --- | --- | --- |
| CN1CCN(S(=O)(=O)c2ccc(Nc3ncc(Br)c(Nc4ccc5nccnc5c4N(C)S(C)(=O)=O)n3)cc2)CC1 [Compound I-49] |  |  |  |  |  |  | 50 to 500 | 50 to 500 | 50 to 500 | 50 to 500 | 50 to 500 | 50 to 500 |
| COc1cc(N2CCC(N(C)C)C2)c(C)cc1Nc1ncc([N+](=O)[O-])c(Nc2ccc3nccnc3c2N(C)S(C)(=O)=O)n1 (stereo not drawn) [Compound I-195] |  |  |  |  |  |  | 50 to 500 | ≤ 50 | 50 to 500 | 50 to 500 | 50 to 500 | 50 to 500 |
| COc1cc(N2CCC(N3CCN(C)CC3)CC2)c(C)cc1Nc1ncc(Cl)c(Nc2ccc3nccnc3c2N(C2CC2)S(C)(=O)=O)n1 [Compound I-159] |  |  |  |  |  |  | ≤ 50 | ≤ 50 | ≤ 50 | ≤ 50 | ≤ 50 | ≤ 50 |
| COc1ccc(C(=O)N2CCN(C)CC2)cc1Nc1ncc(Br)c(Nc2ccc3nccnc3c2N(C)S(C)(=O)=O)n1 [Compound I-81] |  |  |  |  |  |  | 50 to 500 | 500 to 2500 | 50 to 500 | 500 to 2500 | 50 to 500 | 50 to 500 |
| CCc1cc(Nc2ncc(Cl)c(Nc3ccc4nccnc4c3N(CC)S(C)(=O)=O)n2)c(OC(F)(F)F)cc1N1CCC(N2CCN(C)CC2)CC1 [Compound I-111] |  |  |  |  |  |  | ≤ 50 | ≤ 50 | 50 to 500 | 50 to 500 | 50 to 500 | 50 to 500 |
| CCc1cc(Nc2ncc(Br)c(Nc3ccc4nccnc4c3N(C)S(=O)(=O)C(F)(F)F)n2)c(OC)cc1N1CCC(N(C)C)C1 (stereo not drawn) [Compound I-128] |  |  |  |  |  |  | 50 to 500 | ≤ 50 | 50 to 500 | 500 to 2500 | 50 to 500 | 500 to 2500 |
| CCc1cc(Nc2ncc(C#N)c(Nc3ccc4nccnc4c3N(C)S(C)(=O)=O)n2)c(OC)cc1N1CCC(N2CCN(C)CC2)CC1 [Compound I-29] |  |  |  |  |  |  | 50 to 500 | 50 to 500 | ≤ 50 | 50 to 500 | 50 to 500 | 50 to 500 |
| CN1CCN(C(=O)c2cccc(Nc3ncc(Br)c(Nc4ccc5nccnc5c4N(C)S(C)(=O)=O)n3)c2)CC1 [Compound I-80] |  |  |  |  |  |  | ≤ 50 | 500 to 2500 | 50 to 500 | 50 to 500 | 50 to 500 | 50 to 500 |
| COc1cc(N2CCC(N(C)C)C2)ccc1Nc1ncc(Br)c(Nc2ccc3nccnc3c2N(C)S(C)(=O)=O)n1 (stereo not drawn) [Compound I-43] |  |  |  |  |  |  | ≤ 50 | ≤ 50 | ≤ 50 | 50 to 500 | ≤ 50 | 50 to 500 |
| CCc1cc(Nc2ncc(Cl)c(Nc3ccc4nccnc4c3N(C3CC3)S(C)(=O)=O)n2)c(OC)cc1N1CCC(N(C)C)C1 (stereo not drawn) [Compound I-163] |  |  |  |  |  |  | ≤ 50 | ≤ 50 | ≤ 50 | ≤ 50 | ≤ 50 | ≤ 50 |
| COc1cc(N2CCN(C)CC2)c(C)cc1Nc1ncc([N+](=O)[O-])c(Nc2ccc3nccnc3c2N(C)S(C)(=O)=O)n1 [Compound I-194] |  |  |  |  |  |  | 50 to 500 | ≤ 50 | 50 to 500 | 50 to 500 | 50 to 500 | 50 to 500 |

The next lines start with the values.

| IC50 [1, 7] [nM] | IC50 [2, 8] [nM] | IC50 [3, 9] [nM] | IC50 [4, 10] [nM] | IC50 [5, 11] [nM] | IC50 [6, 12] [nM] | IC50 [1, 13] [nM] | IC50 [2, 14] [nM] | IC50 [3, 15] [nM] | IC50 [4, 16] [nM] | IC50 [5, 17] [nM] | IC50 [6, 18] [nM] | Structure (SMILES) |
| --- | --- | --- | --- | --- | --- | --- | --- | --- | --- | --- | --- | --- |
| ≤ 50 | ≤ 50 | ≤ 50 | ≤ 50 | ≤ 50 | ≤ 50 |  |  |  |  |  |  | COc1ccc(N2CCC(O)CC2)cc1Nc1ncc(Cl)c(Nc2ccc3nccnc3c2N(C2CC2)S(C)(=O)=O)n1 [Compound I-379] |
|  |  |  |  |  |  | ≤ 50 | ≤ 50 | ≤ 50 | ≤ 50 | 50 to 500 | ≤ 50 | COc1cc(N2CCN(C)CC2)c(C)cc1Nc1ncc(Cl)c(Nc2ccc3nccnc3c2N(C2CC2)S(C)(=O)=O)n1 [Compound I-244] |
| ≤ 50 | ≤ 50 | ≤ 50 | ≤ 50 | ≤ 50 | ≤ 50 |  |  |  |  |  |  | CCc1cc(Nc2ncc(Br)c(Nc3ccc4nccnc4c3NS(C)(=O)=O)n2)c(OC)cc1N1CCC(N2CCN(C)CC2)CC1 [Compound I-403] |
|  |  |  |  |  |  | ≤ 50 | ≤ 50 | ≤ 50 | ≤ 50 | ≤ 50 | ≤ 50 | CCN(c1c(Nc2nc(Nc3cc(C)c(N4CCC(N(C)C)C4)cc3OC)ncc2Cl)ccc2nccnc12)S(C)(=O)=O (stereo not drawn) [Compound I-233] |
| 50 to 500 | ≤ 50 | ≤ 50 | 50 to 500 | 50 to 500 | 50 to 500 |  |  |  |  |  |  | CCc1cc(Nc2ncc(Br)c(Nc3ccc4nccnc4c3N(C)S(C)(=O)=O)n2)c(OC)cc1N(C)CCN(C)C [Compound I-392] |
|  |  |  |  |  |  | ≤ 50 | ≤ 50 | ≤ 50 | ≤ 50 | ≤ 50 | 50 to 500 | CCc1cc(Nc2ncc(Cl)c(Nc3ccc4nccnc4c3N(CC)S(C)(=O)=O)n2)c(OC)nc1N1CCC(N2CCN(C)CC2)CC1 [Compound I-227] |
| 50 to 500 | 50 to 500 | 50 to 500 | 50 to 500 | 500 to 2500 | 500 to 2500 |  |  |  |  |  |  | CCc1cc(Nc2ncc(C3CC3)c(Nc3ccc4nccnc4c3N(C)S(C)(=O)=O)n2)c(OC)cc1C(=O)N1CCC(N2CCN(C)CC2)CC1 [Compound I-347] |
|  |  |  |  |  |  | 50 to 500 | ≤ 50 | 50 to 500 | 50 to 500 | 50 to 500 | 50 to 500 | COc1nc(N2CCC(N3CCN(C)CC3)CC2)ccc1Nc1ncc(Cl)c(Nc2ccc3nccnc3c2N(C2CC2)S(C)(=O)=O)n1 [Compound I-239] |
| ≤ 50 | ≤ 50 | 50 to 500 | ≤ 50 | 50 to 500 | 50 to 500 |  |  |  |  |  |  | CN1CCN(C2CCN(c3ccc(Nc4ncc(Cl)c(Nc5ccc6nccnc6c5N(C)S(C)(=O)=O)n4)c(F)c3F)CC2)CC1 [Compound I-356] |
| ≤ 50 | ≤ 50 | ≤ 50 | ≤ 50 | ≤ 50 | 50 to 500 |  |  |  |  |  |  | CN1CCN(C2CCN(c3c(F)cc(Nc4ncc(Cl)c(Nc5ccc6nccnc6c5N(C)S(C)(=O)=O)n4)cc3F)CC2)CC1 [Compound I-357] |
| 50 to 500 | 500 to 2500 | 500 to 2500 | 50 to 500 | 50 to 500 | 500 to 2500 |  |  |  |  |  |  | COc1nc(N2CCC(N3CCN(C)CC3)CC2)c(C)cc1Nc1ncc(Br)c(Nc2ccc3nccnc3c2N(C2CC2)S(C)(=O)=O)n1 [Compound I-306] |
| 50 to 500 | 50 to 500 | 50 to 500 | 50 to 500 | 500 to 2500 | 500 to 2500 |  |  |  |  |  |  | COc1cc(N2CCC(N3CCN(C)CC3)CC2)c(CC2CC2)cc1Nc1nc(Nc2ccc3nccnc3c2N(C)S(C)(=O)=O)c2occc2n1 [II-1-43] |
|  |  |  |  |  |  | ≤ 50 | ≤ 50 | ≤ 50 | 50 to 500 | ≤ 50 | 50 to 500 | COc1cc(N2CCC(N3CCN(C)CC3)CC2)c(C2CC2)cc1Nc1ncc(Cl)c(Nc2ccc3nccnc3c2N(C)S(C)(=O)=O)n1 [Compound I-287] |
| 50 to 500 | 50 to 500 | 50 to 500 | 500 to 2500 | 50 to 500 | 500 to 2500 |  |  |  |  |  |  | C=Cc1cc(Nc2ncc(Br)c(Nc3ccc4nccnc4c3N(C3CC3)S(C)(=O)=O)n2)c(OC(F)(F)F)cc1N1CCC(N2CCN(C)CC2)CC1 [Compound I-307] |
| ≤ 50 | ≤ 50 | ≤ 50 | 50 to 500 | ≤ 50 | ≤ 50 |  |  |  |  |  |  | COc1cc(N2CCC(N3CCN(C)CC3)CC2)c(C)cc1Nc1ncc(Br)c(Nc2ccc3nccnc3c2NS(C)(=O)=O)n1 [Compound I-402] |
